Measured values reported in patent publication US20260072027A1, “Peptides And Method” (Queen Mary University of London, priority 2022, published 2026).
Where no end group is shown, it is not given here. [ ]: non-standard residue; d: D form. Dopa = N[C@@H](Cc1ccc(O)c(O)c1)C(=O)O; Cya = N[C@@H](CS(=O)(=O)O)C(=O)O

Key:
serum IgG autoantibodies = test: ELISA for autoantibody detection: serum antibody binding to native and oxPTM insulin peptides; set-up: species or system human; details: for % binders, Healthy controls / Mean ± SEM (absorbance, OD), Healthy controls / % binders, Type 1 diabetes: Study cohort 1; for % binders, Healthy controls / Mean ± SEM (absorbance, OD), Healthy controls / % binders, Type 1 diabetes / Mean ± SEM (absorbance, OD), Type 1 diabetes: in silico modifications; for % binders, Type 1 diabetes: cut-off = mean of healthy controls to Nt-INSP plus 3 SEM; for Mean ± SEM (absorbance, OD), Type 1 diabetes: Study cohort 1 sera
Description: ELISA for autoantibody detection. The ELISA analysis of Nt-INS and oxPTM-INS autoantibodies was performed as previously described [18](detailed in ESM methods, ELISA assay for antibody detection).
Statistical analyses. Statistical analyses were performed using Prism Software 9.0 (GraphPad, San Diego, CA, USA). Cut-off points of positivity (binders) in the antibody ELISA for each peptide were defined by the mean of optical absorbance (O.D) of healthy controls to the corresponding Nt-INSP plus three times the standard error of the mean (SEM). Specificity and sensitivity were evaluated by receiver operating characteristic (ROC) curve analysis. Area under the curve (AUC) is reported as absolute value and was tested for equality according to DeLong et al. Differences in antibody levels and T-cell stimulation indices (SI) between groups were tested by the One way ANOVA or Student's t-tests as appropriate. Correlation analyses were tested by Pearson or Spearman's test, as appropriate. Categorical analyses were performed by Chi-square or McNemar's tests, as appropriate. For each set of experiments, p values were adjusted for multiple comparison using the Holm-Sidak's test. Hierarchical cluster and Principal Component Analysis (PCA) was done using Clustvis software (https://biit.cs.ut.ee/clustvis/) and Prism Software 9.0, respectively.
Antibody reactivity of type 1 diabetes serum against the candidate oxPTM-INSP. Identified peptide candidates were synthesised and exposed to either HOCl or ^●OH to generate oxPTM-INSPs that were first assessed by TOF-MS/ES+TIC to confirm modification (FIG. 17). Antibody response against native INSPs (Nt-INSPs) and oxPTM-INSPs was evaluated by ELISA using sera from Study cohort 1.
ESM Methods ELISA assay for antibody detection. The ELISA analysis of native (Nt-INS) and modified insulin (oxPTM-INS) was performed as previously described. Briefly, the ELISA plate was coated overnight at 4° C. with 100 μl per well of modified or native insulin in 0.05 M carbonate/bicarbonate buffer pH 9.6 at 10 μg/ml. The next day, the plates were washed 3 times with 0.1% Tween PBS, followed by blocking for 2 hours at room temperature with 200 μl per well of 5% BSA in 0.1% Tween PBS. After washing, 100 μl of 1:200-diluted serum samples in 5% BSA-0.1% Tween PBS were added for additional 2 hours incubation. ELISA plates were then washed 3 times with 0.1% Tween PBS followed by probing with anti-human IgG horse radish peroxidase conjugated (HRP, Sigma) at 1:1,000 dilution in 5% BSA-0.1% Tween PBS for another 1.5 hours incubation. The ELISA plates were washed, and 100 μg/ml TMB substrate in 0.1M sodium acetate pH 6.0 plus 2 μl/10 ml of H2O2, were added. Subsequently, the reaction was stopped with 20% v/v sulphuric acid. The optical density (O.D.) was measured at 450 nm using a GENios plate reader and Magellan software (TECAN, Dorset, UK).

CD4+ T-cells (PBMCs) = test: In vitro peptide stimulation and T-cell proliferation assay, CD4+; format: cell-based, human
Excerpt: (§1) In vitro peptide stimulation and T-cell proliferation assay. Peripheral blood mononuclear cells (PBMCs) were freshly isolated from type 1 diabetes and healthy individuals using Ficoll-Hypaque density gradient centrifugation. PBMCs were labelled with the fluorescent dye CellTrace Violet (Invitrogen, Thermo Fisher Scientific) and cultured (2×10^5 cells/well) in round-bottom 96-well plates (Falcon, Becton Dickinson) with RPMI-1640 medium (Gibco, Thermo Fisher Scientific) supplemented with 5% autologous plasma in the presence or not of insulin peptides (20 μg/ml); PPD (10 μg/ml) and anti-CD3 (0.1 μg/ml; clone OKT3) were used as positive control. Two scrambled peptides: […] (SEQ ID NO: 17), […] (SEQ ID NO: 18), and the Exendin 9-39 fragment were used as negative controls. After 7 days, PBMCs were stained with PE-Cy7 anti-CD8 (clone RPA-T8, BD Pharmingen) and FITC anti-CD3 (clone UCHT1, BD Pharmingen). Samples were analysed by using a FACSCanto II (BD Bioscience) to evaluate T-cell proliferation measured as CellTrace Violet dilution. Cytofluorimetric analyses were performed using FlowJo Software (FlowJo, LLC). The results were given as stimulation index (SI), calculated as percentage of stimulated T-cell subset proliferation/percentage of unstimulated T-cell subset proliferation. Assay for detection of peptide specific T cells subsets was done as previously described (detailed in ESM methods, Assay for detection of peptide specific T cells)
(§2) T-cell stimulation with oxPTM-INSPs. To evaluate the immune cell response against the oxPTM-INSPs, we performed CD4+ and CD8+ T cells proliferation experiments using freshly isolated PBMCs (Study cohort 2, Table 1). Response was calculated as stimulatory index (SI) over unstimulated T-cells.

CD8+ T-cells (PBMCs) = test: In vitro peptide stimulation and T-cell proliferation assay, CD8+; format: cell-based, human
Excerpt: as §1, §2

% binders, Healthy controls (serum IgG autoantibodies)	Mean ± SEM (absorbance, OD), Healthy controls (serum IgG autoantibodies)	% binders, Type 1 diabetes (serum IgG autoantibodies)	Mean ± SEM (absorbance, OD), Type 1 diabetes (serum IgG autoantibodies)	Substance	CD4+ T-cell response, subjects with SI > 1 (%) (CD4+ T-cells (PBMCs); Controls (N = 11))	CD4+ T-cell response, subjects with SI > 3 (%) (CD4+ T-cells (PBMCs); Controls (N = 11))	CD4+ T-cell response, subjects with SI > 5 (%) (CD4+ T-cells (PBMCs); Controls (N = 11))	CD4+ T-cell response, subjects with SI > 10 (%) (CD4+ T-cells (PBMCs); Controls (N = 11))	CD4+ T-cell response, subjects with SI > 1 (%) (CD4+ T-cells (PBMCs); Type 1 diabetes (N = 18))	CD4+ T-cell response, subjects with SI > 3 (%) (CD4+ T-cells (PBMCs); Type 1 diabetes (N = 18))	CD4+ T-cell response, subjects with SI > 5 (%) (CD4+ T-cells (PBMCs); Type 1 diabetes (N = 18))	CD4+ T-cell response, subjects with SI > 10 (%) (CD4+ T-cells (PBMCs); Type 1 diabetes (N = 18))	CD8+ T-cell response, subjects with SI > 1 (%) (CD8+ T-cells (PBMCs); Controls (N = 11))	CD8+ T-cell response, subjects with SI > 3 (%) (CD8+ T-cells (PBMCs); Controls (N = 11))	CD8+ T-cell response, subjects with SI > 5 (%) (CD8+ T-cells (PBMCs); Controls (N = 11))	CD8+ T-cell response, subjects with SI > 10 (%) (CD8+ T-cells (PBMCs); Controls (N = 11))	CD8+ T-cell response, subjects with SI > 1 (%) (CD8+ T-cells (PBMCs); Type 1 diabetes (N = 18))	CD8+ T-cell response, subjects with SI > 3 (%) (CD8+ T-cells (PBMCs); Type 1 diabetes (N = 18))	CD8+ T-cell response, subjects with SI > 5 (%) (CD8+ T-cells (PBMCs); Type 1 diabetes (N = 18))	CD8+ T-cell response, subjects with SI > 10 (%) (CD8+ T-cells (PBMCs); Type 1 diabetes (N = 18))	further results
25%	0.351 ± 0.044	100%	0.556 ± 0.031	ERGYYYTPKT (Ac-ERGYYYTPKT) [in silico designed oxPTM-INSP-6 derivative]	(36.4%)	(18.2%)	(9.1%)	(0.0%)	(50.0%)	(22.2%)	(0.0%)	(0.0%)	(27.3%)	(18.2%)	(18.2%)	(9.1%)	(22.2%)	(11.1%)	(11.1%)	(5.6%)	–
17%	0.154 ± 0.006	54%	0.228 ± 0.016	SL-DOPA-QLENY-Cysteate-N (SL[Dopa]QLENY[Cya]N) [in silico designed oxPTM-INSP-3 derivative]	(54.5%)	(18.2%)	(18.2%)	(0.0%)	(50.0%)	(16.7%)	(10.5%)	(5.6%)	(36.4%)	(27.3%)	(27.3%)	(18.2%)	(44.4%)	(27.8%)	(16.7%)	(5.6%)	–
30%	0.357 ± 0.030	100%	0.536 ± 0.021	ERGYY-DOPA-TPKT (ERGYY[Dopa]TPKT) [in silico designed oxPTM-INSP-6 derivative]	(27.3%)	(0.0%)	(0.0%)	(0.0%)	(50.0%)	(5.6%)	(5.2%)	(5.6%)	(18.2%)	(9.10%)	(0.0%)	(0.0%)	(27.8%)	(0.0%)	(0.0%)	(0.0%)	type 1 diabetes binders (IgG autoantibody reactivity) (serum IgG autoantibodies; Study cohort 2, N = 18): 55.5%
